Entries after “also recorded” stand apart in the source; their conditions may differ.

The subject of the data set is Sap9. The data set can be described thus: purified recombinant Sap9. The conditions noted are these: C. albicans, 37 °C, up to 2 h.
Take DSHAKRHHGYKRKFHEKHHSHRGY: the cleaved bond entry was “K17-H18; also recorded: R12-K13; also recorded: K13-F14; also recorded: H18-H19”.

For DSHAKRHHGYLRKFHEKHHSHRGY, the fragment found result is “amino acids 1–17; also recorded: amino acids 18–24”.

As for DSHALRHHGYKRKFHEKHHSHRGY, the fragment found entry is given as “amino acids 1–17; also recorded: amino acids 18–24”.

DSHARRHHGYKRKFHEKHHSHRGY: the fragment found result is listed as “amino acids 1–17; also recorded: amino acids 18–24”.

On to DSHAKRHHGYKRRFHEKHHSHRGY, for which the fragment found entry is “amino acids 1–17; also recorded: amino acids 18–24”.

Take DSHAKRHHGYRRKFHEKHHSHRGY: the fragment found result was “amino acids 1–17; also recorded: amino acids 18–24”.
